We go through 35 compounds from US7211572B2 (Japan Tobacco Inc., priority 2003, dated 2007).

The structures appear in SMILES notation. Counter-ions that a name gives are not always drawn.

The test has as its target T1, HIV integrase (Human immunodeficiency virus type 1 group M subtype B, UniProt P12497, F1332H).
T1 construct: HIV integrase full length gene; made in house; host or cells: Escherichia coli BL21(DE3), plasmid pET21a-INH
The test is described as follows: Determination of enzyme (HIV integrase) inhibitory activity. In kind it is biochemical. To be noted: recombinant HIV integrase (F185H), strand transfer ELISA, absorbance at 450 nm. The method in brief:
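Full-length integrase with F185H, expressed in E. coli and purified, was reacted for 60 min at 37 °C with compound and biotinylated donor DNA bound to streptavidin plates. Target DNA was added for 10 min, then anti-digoxigenin-peroxidase detection at A450; IC50 from % inhibition versus enzyme-free blank.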
A general note: An ELISA detects its analyte on a solid surface through an enzyme-linked reagent.
As a reminder, the IC50 is the concentration at which inhibition is half-maximal. For the compound `CS(=O)(=O)Nc1cn2c(c(O)c1=O)C(=O)N(Cc1ccc(F)c(Cl)c1)CC2` [Example 353, N-[2-(3-chloro-4-fluorobenzyl)-9-hydroxy-1,8-dioxo-1,3,4,8-tetrahydro-2H-pyrido[1,2-a]pyrazin-7-yl]methanesulfonamide], the IC50 was below 10 nM. In the case of `O=c1ccn2ccn(C/C=C/c3ccccc3)c(=O)c2c1O` [Example 206, 9-hydroxy-2-(3-phenylallyl)-2H-pyrido[1,2-a]pyrazine-1,8-dione] it was 10 to 100 nM; in that of `CC(C)Oc1ccc(CN2CCn3cc(-c4nccs4)c(=O)c(O)c3C2=O)cc1Cl` [Example 355, 2-(3-chloro-4-isopropoxybenzyl)-9-hydroxy-7-(thiazol-2-yl)-3,4-dihydro-2H-pyrido[1,2-a]pyrazine-1,8-dione hydrochloride], 10 to 100 nM. As for `COC(=O)Cc1cn2ccn(Cc3cccc(Cl)c3)c(=O)c2c(O)c1=O` [Example 187, methyl [2-(3-chlorobenzyl)-9-hydroxy-1,8-dioxo-1,8-dihydro-2H-pyrido[1,2-a]pyrazin-7-yl]acetate], the figure is 10 to 100 nM; as for `O=c1ccn2ccn(CCOc3ccccc3Cl)c(=O)c2c1O` [Example 169, 2-[2-(2-chlorophenoxy)ethyl]-9-hydroxy-2H-pyrido[1,2-a]pyrazine-1,8-dione hydrochloride], 100 to 1000 nM. In the case of `Cc1cnc(-c2cn3c(c(O)c2=O)C(=O)N(Cc2cccc(Cl)c2)CC3)s1` [Example 248, 2-(3-chlorobenzyl)-9-hydroxy-7-(5-methylthiazol-2-yl)-3,4-dihydro-2H-pyrido[1,2-a]pyrazine-1,8-dione] it was below 10 nM.

`O=c1c(-c2ccccc2F)cn2ccn(Cc3cccc(Cl)c3)c(=O)c2c1O` [Example 130, 2-(3-chlorobenzyl)-7-(2-fluorophenyl)-9-hydroxy-2H-pyrido[1,2-a]pyrazine-1,8-dione hydrochloride]: the half-maximal inhibitory concentration (IC50) was below 10 nM. In the case of `COC(=O)c1cn(Cc2ccc(Cl)c(Cl)c2)c(=O)c2c(O)c(=O)ccn12` [Example 89, methyl 2-(3,4-dichlorobenzyl)-9-hydroxy-1,8-dioxo-1,8-dihydro-2H-pyrido[1,2-a]pyrazine-4-carboxylate] it was 10 to 100 nM; in that of `C[S+]([O-])c1cn2ccn(Cc3cccc(Cl)c3)c(=O)c2c(O)c1=O` (centres unmarked) [Example 247, 2-(3-chlorobenzyl)-9-hydroxy-7-methanesulfinyl-2H-pyrido[1,2-a]pyrazine-1,8-dione], 10 to 100 nM. Take `O=C1c2c(O)c(=O)c(-c3nccs3)cn2CCN1Cc1cccc(Cl)c1F` [Example 292, 2-(3-chloro-2-fluorobenzyl)-9-hydroxy-7-(thiazol-2-yl)-3,4-dihydro-2H-pyrido[1,2-a]pyrazine-1,8-dione]: the IC50 is below 10 nM. In the case of `N#CCc1cc(=O)c(O)c2n1CCN(Cc1ccc(Cl)c(Cl)c1)C2=O` [Example 75, [2-(3,4-dichlorobenzyl)-9-hydroxy-1,8-dioxo-1,3,4,8-tetrahydro-2H-pyrido[1,2-a]pyrazin-6-yl]acetonitrile] it was 10 to 100 nM. In the case of `CSCCC1CN(Cc2ccc(Cl)c(Cl)c2)C(=O)c2c(O)c(=O)ccn21` (centres unmarked) [Example 33, 2-(3,4-dichlorobenzyl)-9-hydroxy-4-(2-methylsulfanylethyl)-3,4-dihydro-2H-pyrido[1,2-a]pyrazine-1,8-dione] it was 10 to 100 nM.

As for `O=C1c2c(O)c(=O)c(-c3ccncn3)cn2CCN1Cc1ccc(F)c(Cl)c1` [Example 394, 2-(3-chloro-4-fluorobenzyl)-9-hydroxy-7-(pyrimidin-4-yl)-3,4-dihydro-2H-pyrido[1,2-a]pyrazine-1,8-dione hydrochloride], the half-maximal inhibitory concentration (IC50) lay within 10 to 100 nM.

With `O=c1c(-c2ccncn2)cn2ccn(Cc3ccc(Cl)cc3)c(=O)c2c1O` [Example 399, 2-(4-chlorobenzyl)-9-hydroxy-7-(pyrimidin-4-yl)-2H-pyrido[1,2-a]pyrazine-1,8-dione hydrochloride], the IC50 is below 10 nM. As for `O=C1CCN(C(=O)c2cn3ccn(Cc4cccc(Cl)c4)c(=O)c3c(O)c2=O)C1` [Example 201, 2-(3-chlorobenzyl)-9-hydroxy-7-(3-oxopyrrolidine-1-carbonyl)-2H-pyrido[1,2-a]pyrazine-1,8-dione], the figure is 10 to 100 nM; as for `CCCCN(C)C(=O)c1cn2ccn(Cc3cccc(Cl)c3)c(=O)c2c(O)c1=O` [Example 182, N-butyl-N-methyl-2-(3-chlorobenzyl)-9-hydroxy-1,8-dioxo-1,8-dihydro-2H-pyrido[1,2-a]pyrazine-7-carboxamide], 10 to 100 nM.

Consider `CCNC(=O)c1cn2ccn(Cc3ccc(F)cc3)c(=O)c2c(O)c1=O` [Example 323, N-ethyl-2-(4-fluorobenzyl)-9-hydroxy-1,8-dioxo-1,8-dihydro-2H-pyrido[1,2-a]pyrazine-7-carboxamide], for which the IC50 lay within 10 to 100 nM. In the case of `CNC(=O)Cc1cn2ccn(Cc3cccc(Cl)c3)c(=O)c2c(O)c1=O` [Example 189, 2-[2-(3-chlorobenzyl)-9-hydroxy-1,8-dioxo-1,8-dihydro-2H-pyrido[1,2-a]pyrazin-7-yl]-N-methylacetamide] it was 10 to 100 nM.

For the compound `CC(=O)c1cn2ccn(Cc3ccc(F)c(Cl)c3)c(=O)c2c(O)c1=O` [Example 244, 7-acetyl-2-(3-chloro-4-fluorobenzyl)-9-hydroxy-2H-pyrido[1,2-a]pyrazine-1,8-dione hydrochloride], the IC50 is below 10 nM.

As for `CC(C)OC(=O)c1cn2ccn(Cc3cccc(Cl)c3)c(=O)c2c(O)c1=O` [Example 150, isopropyl 2-(3-chlorobenzyl)-9-hydroxy-1,8-dioxo-1,8-dihydro-2H-pyrido[1,2-a]pyrazine-7-carboxylate], the half-maximal inhibitory concentration (IC50) was 10 to 100 nM. As for `CC1(C)Cn2ccc(=O)c(O)c2C(=O)N1Cc1ccc(Cl)c(Cl)c1` [Example 18, 2-(3,4-dichlorobenzyl)-9-hydroxy-3,3-dimethyl-3,4-dihydro-2H-pyrido[1,2-a]pyrazine-1,8-dione], the half-maximal inhibitory concentration (IC50) was 10 to 100 nM.

In the case of `CCCCC1Cn2ccc(=O)c(O)c2C(=O)N1Cc1ccc(Cl)c(Cl)c1` (centres unmarked) [Example 26, 3-butyl-2-(3,4-dichlorobenzyl)-9-hydroxy-3,4-dihydro-2H-pyrido[1,2-a]pyrazine-1,8-dione], the IC50 fell in the range of 10 to 100 nM. Turning to `COC(=O)Nc1cn2ccn(Cc3cccc(Cl)c3)c(=O)c2c(O)c1=O` [Example 263, methyl[2-(3-chlorobenzyl)-9-hydroxy-1,8-dioxo-1,8-dihydro-2H-pyrido[1,2-a]pyrazin-7-yl]carbamate], the IC50 was below 10 nM. On to `O=c1ccn2ccn(Cc3ccc(F)cc3)c(=O)c2c1O` [Example 250, 2-(4-fluorobenzyl)-9-hydroxy-2H-pyrido[1,2-a]pyrazine-1,8-dione hydrochloride], for which the half-inhibitory concentration (IC50) fell in the range of 10 to 100 nM.

For the compound `O=c1c(-c2nnn[nH]2)cn2ccn(Cc3cccc(Cl)c3)c(=O)c2c1O` [Example 188, 2-(3-chlorobenzyl)-9-hydroxy-7-(1H-tetrazol-5-yl)-2H-pyrido[1,2-a]pyrazine-1,8-dione hydrochloride], the IC50 lay in the range of 10 to 100 nM. In the case of `O=C1c2c(O)c(=O)ccn2C2(CCCCC2)CN1Cc1ccc(Cl)c(Cl)c1` [Example 20, 2-(3,4-dichlorobenzyl)-9-hydroxy-3,4-dihydro-2H-pyrido[1,2-a]pyrazine-4-spiro-1′-cyclohexane-1,8-dione] it was 10 to 100 nM; in that of `O=C1c2c(O)c(=O)ccn2C(Cc2ccccc2)CN1Cc1ccc(Cl)c(Cl)c1` (centres unmarked) [Example 14, 4-benzyl-2-(3,4-dichlorobenzyl)-9-hydroxy-3,4-dihydro-2H-pyrido[1,2-a]pyrazine-1,8-dione], 10 to 100 nM; in that of `CN(C)C(=O)C1CN(Cc2ccc(Cl)c(Cl)c2)C(=O)c2c(O)c(=O)ccn21` (centres unmarked) [Example 27, N,N-dimethyl-2-(3,4-dichlorobenzyl)-9-hydroxy-1,8-dioxo-1,3,4,8-tetrahydro-2H-pyrido[1,2-a]pyrazine-4-carboxamide], 100 to 1000 nM. For the compound `O=C1c2c(O)c(=O)c(-c3nccs3)cn2CCN1Cc1cccc(Cl)c1` [Example 215, 2-(3-chlorobenzyl)-9-hydroxy-7-(thiazol-2-yl)-3,4-dihydro-2H-pyrido[1,2-a]pyrazine-1,8-dione], the IC50 is below 10 nM. As for `CCc1ccccc1-c1cn2ccn(Cc3cccc(Cl)c3)c(=O)c2c(O)c1=O` [Example 138, 2-(3-chlorobenzyl)-7-(2-ethylphenyl)-9-hydroxy-2H-pyrido[1,2-a]pyrazine-1,8-dione hydrochloride], the figure is 10 to 100 nM; as for `CC(C)(C)C(=O)c1cn2c(c(O)c1=O)C(=O)N(Cc1ccc(F)cc1)CC2(C)C` [Example 412, 7-(2,2-dimethylpropionyl)-2-(4-fluorobenzyl)-9-hydroxy-4,4-dimethyl-3,4-dihydro-2H-pyrido[1,2-a]pyrazine-1,8-dione hydrochloride], 10 to 100 nM; as for `O=C1c2c(O)c(=O)c(-c3ccccn3)cn2CCN1Cc1cccc(Cl)c1F` [Example 317, 2-(3-chloro-2-fluorobenzyl)-9-hydroxy-7-(pyridin-2-yl)-3,4-dihydro-2H-pyrido[1,2-a]pyrazine-1,8-dione hydrochloride], 10 to 100 nM. In the case of `O=C1c2c(O)c(=O)c(-c3nccs3)cn2CCN1Cc1ccccc1Cl` [Example 310, 2-(2-chlorobenzyl)-9-hydroxy-7-(thiazol-2-yl)-3,4-dihydro-2H-pyrido[1,2-a]pyrazine-1,8-dione] it was 100 to 1000 nM; in that of `O=c1c(-c2ncco2)cn2ccn(Cc3cccc(Cl)c3)c(=O)c2c1O` [Example 197, 2-(3-chlorobenzyl)-9-hydroxy-7-(oxazol-2-yl)-2H-pyrido[1,2-a]pyrazine-1,8-dione hydrochloride], 10 to 100 nM; in that of `CC(C)c1cn(Cc2cccc(Cl)c2)c(=O)c2c(O)c(=O)c(-c3cccc(Cl)c3)cn12` [Example 139, 2-(3-chlorobenzyl)-7-(3-chlorophenyl)-9-hydroxy-4-isopropyl-2H-pyrido[1,2-a]pyrazine-1,8-dione], 10 to 100 nM.
